In ChEMBL document CHEMBL4257529, “Antifungal amphiphilic kanamycins: new life for an old drug” (Medchemcomm, 2018) one finds MIC and Activity data, which are given here for one compound.

Molecules are shown by their SMILES. In brackets after ≈: the same amount, converted by molar mass.

Holding throughout (assay type): functional
For test [1], the system named is Escherichia coli. Nature of the test: Antibacterial activity against Escherichia coli TG1.
Test [2] concerns Staphylococcus aureus. Put plainly: Antibacterial activity against Staphylococcus aureus ATCC 25923.
For test [3], the system named is Cryptococcus neoformans. Nature of the test: Antifungal activity against Cryptococcus neoformans 94-2586.
The subject of test [4] is Kluyveromyces marxianus. Put plainly: Antifungal activity against Candida pseudotropicalis YOGI.
Test [5] concerns Clavispora lusitaniae. Put plainly: Antifungal activity against Candida lusitaniae 95-767.
For test [6], the system named is Diutina rugosa. Put plainly: Antifungal activity against Candida rugosa 95-967.
The test system of test [7] is Fusarium oxysporum. Nature of the test: Antifungal activity against Fusarium oxysporum.
Test [8] has as its system Fusarium graminearum. Nature of the test: Synergistic antifungal activity against Fusarium graminearum B4-5A strain A assessed as fluconazole MIC after 48 hrs by microdilution assay. On the technique in general: In broth dilution the organism is exposed to a series of concentrations in liquid medium.
Test [9] relates to Fusarium graminearum. Put plainly: Synergistic antifungal activity against Fusarium graminearum B4-5A strain D assessed as fluconazole MIC after 48 hrs by microdilution assay.
Test [10] concerns Fusarium graminearum. Nature of the test: Synergistic antifungal activity against Fusarium graminearum B4-5A strain E assessed as fluconazole MIC after 48 hrs by microdilution assay.
The subject of test [11] is Fusarium graminearum. Put plainly: Synergistic antifungal activity against Fusarium graminearum B4-5A strain B in presence of fluconazole after 48 hrs by microdilution assay.
The test system of test [12] is Fusarium graminearum. Put plainly: Synergistic antifungal activity against Fusarium graminearum B4-5A strain D in presence of fluconazole after 48 hrs by microdilution assay.
In test [13] the test system is Fusarium graminearum. Nature of the test: Synergistic antifungal activity against Fusarium graminearum infected in wheat plant assessed as spikelet curling at 360 mg/L in presence of 8 ml/L pyraclostrobin (reference value: 51.4%).
In test [14] the test system is Fusarium graminearum. Nature of the test: Antifungal activity against Fusarium graminearum infected in wheat plant assessed as fusarium head blight incidence at 360 mg/L (reference value: 70%).
In test [15] the test system is Fusarium graminearum. Put plainly: Synergistic antifungal activity against Fusarium graminearum infected in wheat plant assessed as fusarium head blight incidence at 180 mg/L in presence of 0.512 L/ha caramba (reference value: 70%).
Test [16] relates to Fusarium graminearum. Nature of the test: Antifungal activity against Fusarium graminearum infected in wheat plant assessed as fusarium head blight severity at 180 mg/L (reference value: 75%).

As for `CCCCCCCCS(=O)(=O)OC[C@H]1O[C@H](O[C@@H]2[C@@H](O)[C@H](O[C@H]3O[C@H](CN)[C@@H](O)[C@H](O)[C@H]3O)[C@@H](N)C[C@H]2N)[C@H](O)[C@@H](N)[C@@H]1O`, the MIC in test [1] is 125 to 250 µg/mL (≈ 189 to 378 µM); in [2] it was 250 µg/mL (≈ 378 µM); in [3] it was 3.9 to 7.8 µg/mL (≈ 5.9 to 11.8 µM); in test [4] it was 15.6 µg/mL (≈ 23.6 µM); in [5], > 7.8 µg/mL; in test [6], 15.6 µg/mL (≈ 23.6 µM). Further, the MIC in [7] was 31.3 µg/mL (≈ 47.4 µM); in [8], 25 µg/mL; in [9] it was 0.195 µg/mL; in test [10] it was 12.5 µg/mL; in test [11], 4 µg/mL; in test [12] it was 8 µg/mL. For the same compound, the Activity in test [13] was 1.5%; in test [14], 14%; in test [15], 15%; in test [16], 60%.

The MIC is the lowest concentration found to suppress growth.
